Results published in the supplement of paper PMC10307832.

Columns and labels:
Experiment in all cases: relative viability (nuclei count vs DMSO), 5 days (fraction); higher = more cells survive
Idelalisib + Pemetrexed = compound: CC[C@H](Nc1ncnc2[nH]cnc12)c1nc2cccc(F)c2c(=O)n1-c1ccccc1 [Idelalisib] + Nc1nc2[nH]cc(CCc3ccc(C(=O)N[C@@H](CCC(=O)O)C(=O)O)cc3)c2c(=O)[nH]1 [Pemetrexed] (partner 0.2 µM)
Summary of the method: (§1)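 Dosing by pin tool came one day after lung cancer cell lines were seeded in 1536-well plates, using either one drug or a fixed anchor-drug dose plus five library-drug doses (not always all listed) in √10 steps. After 5 days, nuclei were counted on 4× images. Relative viability is treated-well nuclei count divided by vehicle-well nuclei count, and values are medians of duplicate plates.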

Idelalisib + Olaparib = compound: CC[C@H](Nc1ncnc2[nH]cnc12)c1nc2cccc(F)c2c(=O)n1-c1ccccc1 [Idelalisib] + O=C(c1cc(Cc2n[nH]c(=O)c3ccccc23)ccc1F)N1CCN(C(=O)C2CC2)CC1 [Olaparib] (partner 8 µM)
Summary of the method: as §1

Pemetrexed + OSI-027 = compound: Nc1nc2[nH]cc(CCc3ccc(C(=O)N[C@@H](CCC(=O)O)C(=O)O)cc3)c2c(=O)[nH]1 [Pemetrexed] + COc1cccc2cc(-c3nc([C@H]4CC[C@H](C(=O)O)CC4)n4ncnc(N)c34)[nH]c12 [OSI-027] (partner 0.5 µM)
Summary of the method: as §1

Pemetrexed + Linsitinib = compound: Nc1nc2[nH]cc(CCc3ccc(C(=O)N[C@@H](CCC(=O)O)C(=O)O)cc3)c2c(=O)[nH]1 [Pemetrexed] + C[C@]1(O)C[C@@H](c2nc(-c3ccc4ccc(-c5ccccc5)nc4c3)c3c(N)nccn32)C1 [Linsitinib] (partner 1 µM)
Summary of the method: as §1

Cell Line	relative viability (Idelalisib + Pemetrexed; first compound 0.04 µM)	relative viability (Idelalisib + Pemetrexed; first compound 0.1265 µM)	relative viability (Idelalisib + Pemetrexed; first compound 0.4 µM)	relative viability (Idelalisib + Pemetrexed; first compound 1.265 µM)	relative viability (Idelalisib + Pemetrexed; first compound 4 µM)	relative viability (Idelalisib + Olaparib; first compound 0.04 µM)	relative viability (Idelalisib + Olaparib; first compound 0.1265 µM)	relative viability (Idelalisib + Olaparib; first compound 0.4 µM)	relative viability (Idelalisib + Olaparib; first compound 1.265 µM)	relative viability (Idelalisib + Olaparib; first compound 4 µM)	relative viability (Pemetrexed + OSI-027; first compound 0.002 µM)	relative viability (Pemetrexed + OSI-027; first compound 0.006325 µM)	relative viability (Pemetrexed + OSI-027; first compound 0.02 µM)	relative viability (Pemetrexed + OSI-027; first compound 0.06325 µM)	relative viability (Pemetrexed + OSI-027; first compound 0.2 µM)	relative viability (Pemetrexed + Linsitinib; first compound 0.002 µM)	relative viability (Pemetrexed + Linsitinib; first compound 0.006325 µM)	relative viability (Pemetrexed + Linsitinib; first compound 0.02 µM)	relative viability (Pemetrexed + Linsitinib; first compound 0.06325 µM)	relative viability (Pemetrexed + Linsitinib; first compound 0.2 µM)
NCI-H460	0.0676	0.0589	0.0612	0.0657	0.0587	0.491	0.466	0.461	0.454	0.472	0.57	0.51	0.824	0.374	0.0473	0.75	0.697	0.782	0.166	0.0543
NCI-H2228	0.369	0.323	0.407	0.312	0.325	0.911	0.985	0.589	0.871	0.538	0.506		0.566	0.565	0.218	0.708	0.472	0.906	0.553	0.425
NCI-H2085	0.909	0.852	0.789	0.746	0.528	0.642	0.743	0.767	0.741	0.677	0.653	0.73	0.769	0.85	0.848	0.872	0.828	0.881	0.942	0.97
HCC-366	0.178	0.163	0.214	0.138	0.21	0.386	0.412	0.348	0.305	0.315	0.485	0.795	1.04	0.922	0.816	0.675	0.513	0.677	0.707	0.567
EPLC-272H	0.303	0.386	0.317	0.23	0.347	1.01	0.916	0.686	0.637	0.619	0.268	0.257	0.343	0.302	0.265	1.06	1.07	1.19	0.959	1.12
201T	0.352	0.318	0.357	0.314	0.32	0.825	0.836	0.837	0.821	0.839	0.748	0.739	0.748	0.617	0.406	1.13	1.01	1.1	1.09	1.01
NCI-H3122	0.21	0.207	0.196	0.188	0.198	0.611	0.626	0.669	0.584	0.49	0.857	0.879	0.923	0.524	0.221	1.01	1	0.949	1.01	0.646
NCI-H838	0.253	0.238	0.225	0.237	0.257	0.779	0.794	0.745	0.775	0.564	0.454	0.292	0.379	0.244	0.197	0.97	0.915	1.21	0.791	0.309
NCI-H1755	0.431	0.415	0.38	0.434	0.438	0.881	0.892	0.842	0.801	0.821	0.685	0.797	0.782	0.691	0.667	0.883	0.966	1.02	0.988	0.951
HCC-15	0.242	0.22	0.213	0.22	0.221	0.743	0.583	0.699	0.799	0.707	0.592	0.668	0.76	0.501	0.203	0.857	0.773	0.922	0.753	0.518
NCI-H2087	0.742	0.671	0.657	0.637	0.695	0.498	0.628	0.517	0.658	0.591	0.55	0.512	0.538	0.589	0.524	0.886	0.889	1.02	0.767	0.635
LCLC-103H	0.508	0.456	0.471	0.505	0.477	0.728	0.791	0.721	0.757	0.705	0.409	0.474	0.549	0.463	0.553	1.07	1.03	1.14	1.16	0.992
LK-2	0.344	0.14		0.324	0.404	0.874	0.631		0.983	0.609	0.233	0.205	0.228	0.153	0.2	0.339	0.307	0.514	0.448	0.341
HCC-78	0.664	0.956	0.87	0.86	0.935	0.78	0.855	0.553	0.781	0.585	0.326	0.354	0.395	0.336	0.293		0.384	0.482	0.26	0.18
NCI-H1666	0.821	0.835	0.844	0.847	0.996	0.704	0.758	0.733	0.747	0.724	0.961	0.758	0.955	0.906	0.79	0.71	0.774	0.829	0.73	0.615
EKVX	0.407	0.387	0.377	0.386	0.395	0.756	0.915	0.755	0.884	0.74	0.673	0.678	0.693	0.706	0.611	0.957	1.03	1.02	0.953	0.718
COR-L 105	1.18	1.1	0.913	1.06	0.924	0.628	0.638	0.656	0.715	0.666	0.735	0.638	1.01	0.646	0.619	0.804	0.872	1.05	0.709	1.03
NCI-H322M	0.648	0.634	0.639	0.628	0.623	0.652	0.813	0.781	0.747	0.77	0.606	0.484	0.536	0.583	0.476	0.967	0.778	1.06	0.938	0.809
HARA	0.24	0.243		0.222	0.247	0.738	0.998		0.758	0.792	0.407	0.533	0.53	0.487	0.186	0.876	0.969	0.922	0.822	0.292
NCI-H2023	0.244	0.239	0.212	0.169	0.256	0.463	0.495	0.542	0.436	0.472	0.248	0.38	0.464	0.295	0.166	0.738	0.537	0.693	0.55	0.304
NCI-H1437	0.34	0.315	0.311	0.317	0.268	0.618	0.636	0.634	0.658	0.607		0.828	0.803	0.432	0.346	0.898	0.965	0.967	0.49	0.252
BEN	0.824	0.709	0.895	0.736	0.724	1.02	0.955	1.02	1.12	0.847	0.318	0.301	0.302	0.296	0.332	0.855	0.84	0.897	0.868	0.731
LXF-289	0.921	0.933	0.864	0.965	0.94	1.13	1.07	1.02	1.06	1.04	0.775	0.759	0.909	0.76	0.744	0.917	0.994	0.976	0.955	0.931
NCI-H358	0.18	0.171	0.182	0.168	0.157	0.562	0.586	0.522	0.606	0.516	0.729	0.751	0.638	0.191	0.106	0.641	0.666	0.514	0.261	0.282
NCI-H1993	0.592	0.67	0.548	0.614	0.59	1.16	1.07	0.866	0.915	0.791	0.609	0.524	0.503	0.504	0.585	0.824	0.697	0.815	0.698	0.692
LOU-NH91	0.369	0.414	0.392	0.408	0.408	0.986	0.936	0.856	0.848	0.912	0.68	0.727	0.789	0.667	0.531	0.888	0.852	0.987	0.688	0.598
NCI-H1975	0.292	0.334	0.29	0.276	0.303	0.787	0.835	0.741	0.778	0.615	0.528	0.681	0.873	0.557	0.394		0.904	1.06	0.793	0.526
